Article PMC6941952, “A homogeneous bioluminescent immunoassay to probe cellular signaling pathway regulation” (Communications Biology, 2020)
Several values for one entry are separate records, joined by “and”; a condition that tells them apart may be missing. Identical values can stand only once.

Tests used:
[1] = tested on: total IκBα; assay: NanoBiT cell-based immunoassay, total IκBα in human breast tumor epithelial cells; settings: for IkB degradation (% compared to no IKK16), Average / IkB degradation (% compared to no IKK16) / Non-Treated/Treated / Raw data / Subtract reagent background: Breast tumor cells, TNF; for IkB degradation (% compared to no IKK16), Average: average of replicates; for IkB degradation (% compared to no IKK16) / Non-Treated/Treated / Raw data / Subtract reagent background: single replicates
Description: All cell lines used are from ATCC. […] Human Primary Mammary Epithelial Cells (#H-6035), Human Breast Tumor Epithelial Cells (#HC-6035), Complete Human Epithelial Cell Medium (#H6621), and Gelatin-Based Coating Solution (#H6950) were purchased from Cell Biologics. The cells were cultured according to the manufacturer’s procedure. All cells were grown at 37 °C in a 5% CO2 humidified incubator and passaged before reaching 80% cell confluency. Prior to each experiment, cells were counted by combining 30 µl of cell suspension with 30 µl of trypan blue. After gentle pipetting up and down to mix the cells and the dye, the cell number was determined using Bio-Rad TC 20 cell counter.
(§1) Prior to NanoBiT Cell-Based Immunoassay, 50,000 cells were seeded in 160 µl of complete growth media per well of a 96-well plate and incubated overnight. The cells were checked under microscope and it was determined that 50,000 cells per well in 96-well plate is under 90% confluency for all cells tested. If necessary, the cell culture media were replaced with serum-free media after the cells were stably adherent on the plate and incubated overnight. To treat cells with activators or inhibitors, medium was changed to 30 µl of medium containing inhibitors. If activation of a specific pathway is needed, the cells were stimulated with 10 µl of medium containing activators. To lyse the cells, 10 µl of lysis buffer containing 0.1% digitonin diluted in 1X immunoassay buffer with protease and phosphatase inhibitors was added and the plates were mixed vigorously for 20 min. Then, 50 µl of an antibody mix containing two primary antibodies against the target protein and NanoBiT detecting antibodies (0.3 µl each per well), diluted in 1X immunoassay buffer was added to the lysates. The plates were incubated at 23 °C for 90 min, followed by the addition of 25 µl of Nano-Glo® reagent consisting of Nano-Glo® Luciferase Assay Substrate mixed with 1X immunoassay buffer. Luminescence was measured using a plate-reading luminometer.
(§2) Single dose or dose response inhibitor treatments were performed prior to activation of the pathways as follows. For IκBα, the cells were treated in 30 µl medium with IKK16 or MG132 for 60 min before the addition of 10 µl of DMEM containing appropriate concentration of TNFα. To measure phosphorylation of AKT or STAT3, the corresponding NanoBiT immunoassays were developed with MCF-7 or A431 cells, respectively, according the same scheme used to develop the IκBα assay using the primary antibodies for AKT and STAT3 described in the reagents section. For the AKT assay, MCF-7 cells were incubated overnight in phenol-red free DMEM medium (Gibco #21063-029) without serum. Treatment with LY294002 was performed in 30 µl medium and cells were incubated for 60 min before the addition of 1 µM Insulin. To measure STAT3 phosphorylation, A431 cells were incubated overnight in DMEM medium without serum. […] After addition of the stimulators, the cells were incubated for additional times as follows. IκBα phosphorylation and degradation analyses required both time courses and single time points as described in figures. […] The NanoBiT immunoassay protocol was followed as described above.
(§3) All 96-well assay plates were read using a GloMax® 96 Microplate Luminometer from Promega. The instrument was set to 0.5 s integration time. In order to obtain net change of signal, the reagent background values (signal from the well containing all reagent except primary antibodies) were subtracted from the sample values. To plot and analyze the data, Microsoft Excel and GraphPad Prism® Software were used. IC50 values were determined by using a nonlinear regression fit to a sigmoidal dose response (variable slope).

[2] = tested on: NF-κB p65 Phospho-Ser536; assay: NanoBiT cell-based immunoassay, phosphorylated p65 in MCF-7 cells; parameters: species or system human; settings: for P-p65, Average: background subtracted, average of replicates; for P-p65, Raw data / P-p65, Subtract reagent background: single replicates
Description: as §1, §2, §3

[3] = tested on: total NF-κB p65; assay: NanoBiT cell-based immunoassay, total p65 in MCF-7 cells; parameters: species or system human; settings: for Total p65, Average: background subtracted, average of replicates; for Total p65, Raw data / Total p65, Subtract reagent background: single replicates
Description: as §1, §2, §3

With `O=C(c1ccc(Nc2nccc(-c3cc4ccccc4s3)n2)cc1)N1CCC(N2CCCC2)CC1` [IKK16] the “IkB degradation (% compared to no IKK16), Average” value ([1]; IKK16 0.000762939 uM) was 97.6%, the “IkB degradation (% compared to no IKK16)” value ([1]; IKK16 0.000762939 uM) was 92% and 104% and 97% and the Non-Treated/Treated ([1]; IKK16 0.000762939 uM) was 3.423 and 4.061 and 3.878. For the same compound, the Raw data ([1]; IKK16 0.000762939 uM) was 10940 and 10560 and 10750, the Subtract reagent background ([1]; IKK16 0.000762939 uM) was 5493 and 5113 and 5303 and the “IkB degradation (% compared to no IKK16), Average” value ([1]; IKK16 0.00305176 uM) was 98.3%. For the same compound, the “IkB degradation (% compared to no IKK16)” value ([1]; IKK16 0.00305176 uM) was 97% and 96% and 102%, the Non-Treated/Treated ([1]; IKK16 0.00305176 uM) was 3.600 and 3.739 and 4.102 and the Raw data ([1]; IKK16 0.00305176 uM) was 10670 and 11000 and 10460. For the same compound, the Subtract reagent background ([1]; IKK16 0.00305176 uM) was 5223 and 5553 and 5013, the “IkB degradation (% compared to no IKK16), Average” value ([1]; IKK16 0.012207 uM) was 95.1% and the “IkB degradation (% compared to no IKK16)” value ([1]; IKK16 0.012207 uM) was 98% and 99% and 88%. For the same compound, the Non-Treated/Treated ([1]; IKK16 0.012207 uM) was 3.656 and 3.857 and 3.531, the Raw data ([1]; IKK16 0.012207 uM) was 10590 and 10830 and 11270 and the Subtract reagent background ([1]; IKK16 0.012207 uM) was 5143 and 5383 and 5823. The “IkB degradation (% compared to no IKK16), Average” value ([1]; IKK16 0.0488281 uM) was 99.5%, the “IkB degradation (% compared to no IKK16)” value ([1]; IKK16 0.0488281 uM) was 95% and 97% and 106% and the Non-Treated/Treated ([1]; IKK16 0.0488281 uM) was 3.552 and 3.780 and 4.255. For the same compound, the Raw data ([1]; IKK16 0.0488281 uM) was 10740 and 10940 and 10280, the Subtract reagent background ([1]; IKK16 0.0488281 uM) was 5293 and 5493 and 4833 and the “IkB degradation (% compared to no IKK16), Average” value ([1]; IKK16 0.195312 uM) was 94.6%. For the same compound, the “IkB degradation (% compared to no IKK16)” value ([1]; IKK16 0.195312 uM) was 95% and 102% and 87%, the Non-Treated/Treated ([1]; IKK16 0.195312 uM) was 3.532 and 3.953 and 3.507 and the Raw data ([1]; IKK16 0.195312 uM) was 10770 and 10700 and 11310. For the same compound, the Subtract reagent background ([1]; IKK16 0.195312 uM) was 5323 and 5253 and 5863, the “IkB degradation (% compared to no IKK16), Average” value ([1]; IKK16 0.78125 uM) was 86.9% and the “IkB degradation (% compared to no IKK16)” value ([1]; IKK16 0.78125 uM) was 77% and 92% and 91%. The Non-Treated/Treated ([1]; IKK16 0.78125 uM) was 2.883 and 3.584 and 3.657, the Raw data ([1]; IKK16 0.78125 uM) was 11970 and 11240 and 11070 and the Subtract reagent background ([1]; IKK16 0.78125 uM) was 6523 and 5793 and 5623. The “IkB degradation (% compared to no IKK16), Average” value ([1]; IKK16 3.125 uM) was 49.5%, the “IkB degradation (% compared to no IKK16)” value ([1]; IKK16 3.125 uM) was 48% and 52% and 49% and the Non-Treated/Treated ([1]; IKK16 3.125 uM) was 1.799 and 2.002 and 1.952. For the same compound, the Raw data ([1]; IKK16 3.125 uM) was 15900 and 15820 and 15980, the Subtract reagent background ([1]; IKK16 3.125 uM) was 10453 and 10373 and 10533 and the IC50 ([1]; human primary breast tumor epithelial cells, pretreated 1 h, then TNFα 50 ng per ml 30 min, read-out: IC50, inhibition of TNFα induced degradation of IκBα) was 1820 nM. The “TNFα-increased phosphorylation of p65 on serine 536” value ([2]; MCF-7 cells, 10 µM 1 h, TNFα 50 ng per ml 10 min) was “inhibited”, the “P-p65, Average” value ([2]; TNF + Ikk16) was 4467 and the “P-p65, Raw data” value ([2]; TNF + Ikk16) was 22920 and 23320 and 23680. The “P-p65, Subtract reagent background” value ([2]; TNF + Ikk16) was 4080 and 4480 and 4840, the “P-p65, Average” value ([2]; substance alone) was 3920 and the “P-p65, Raw data” value ([2]; substance alone) was 22430 and 21780 and 21730. For the same compound, the “P-p65, Subtract reagent background” value ([2]; substance alone) was 4370 and 3720 and 3670, the “level of p65” value ([3]; MCF-7 cells, TNFα 50 ng per ml 10 min, IKK16 10 µM 1 h) was “not affected” and the “Total p65, Average” value ([3]; TNF + Ikk16) was 726760. The “Total p65, Raw data” value ([3]; TNF + Ikk16) was 756500 and 718200 and 763300, the “Total p65, Subtract reagent background” value ([3]; TNF + Ikk16) was 744060 and 737260 and 698960 and the “Total p65, Average” value ([3]; substance alone) was 788717. The “Total p65, Raw data” value ([3]; substance alone) was 811900 and 763300 and 846900 and the “Total p65, Subtract reagent background” value ([3]; substance alone) was 828250 and 793250 and 744650.
